# Results reported in ChEMBL document CHEMBL1201862, “PubChem BioAssay data set” (2004).
# Where “and” joins values, the source holds several entries; their conditions need not be identical. Equal entries are not always repeated. Calls of active or inactive are those of the source.
# Key:
# [1] = biological target: Luciferin 4-monooxygenase (Photinus pyralis, UniProt P08659); experiment: Counter Screen for Luciferase-based Assay Positives. [Related pubchem assays: 620, 618, 411 ]
# HT-1080 = experiment: cytotoxicity in HT1080 fibrosarcoma cells, cell-based, fluorescence readout (AID 620); assay type: functional; conditions: Homo sapiens
# [2] = test system: Streptococcus sp. 'group A'; experiment: growth inhibition of control SK(-) GAS strain, dose response, counter-screen for streptokinase expression inhibitor project, luminescence, kanamycin, BacTiterGlo, confirmation (AID 1900); assay type: functional, organism-based
# [3] = Vero E6 cell cytotoxicity, dose response, cytotoxicity control for non-replicating M. tuberculosis project, secondary assay (AID 492998); assay type: functional, VeroE6; conditions: Vero C1008
# [4] = microbe, parasite or virus in culture; assay type: functional; conditions: Mycobacterium tuberculosis
# cells [5] = assay type: functional
# [6] = biological target: NACHT, LRR and PYD domains-containing protein 3 (Homo sapiens, UniProt Q96P20); experiment: NALP3 inhibitors in yeast, dose response, luminescent (AID 488799); assay type: functional
# Streptococcus = experiment: Group A Streptococcus viability loss, dose response, counter-screen for streptokinase expression inhibitor project, luminescence, BacTiterGlo (AID 1915); assay type: functional, organism-based;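 also: potency for reduction of bacterial viability or growth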
# [7] = biological target: RNA-editing ligase 1, mitochondrial (Trypanosoma brucei brucei, UniProt P86926); experiment: TbREL1 ligase inhibitors, dose response, biochemical, fluorescence, Trypanosoma brucei (AID 1117295); assay type: functional
# [8] = biological target: Melanin-concentrating hormone receptor 1 (Homo sapiens, UniProt Q99705); experiment: Fluorescence-based counterscreen for antagonists of the G-protein coupled receptor 7 (GPR7): cell-based high throughput dose response assay to identify antagonists of the melanin-concentrating hormone receptor 1 (MCHR1).; assay type: functional
# Beta-galactosidase = Beta-galactosidase (Escherichia coli, UniProt Q8VNN2); experiment: beta-galactosidase enzyme inhibitors and activators, dose response, artefact control for CCR6 antagonist project, biochemical, E. coli enzyme, set 3 (AID 504712); assay type: functional
# cells [9] = assay type: functional, cell-based; conditions: HEK-CNG
# [10] = CEM21 lymphoblast cell cytotoxicity, dose response, cytotoxicity control for viral fusion inhibitor project, CellTiter-Glo luminescence, cherry-picked (AID 652042); assay type: functional, cell-based;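 also: potency for signal decrease meaning cytotoxicity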
# Galanin receptor type 3 = biological target: T1, Galanin receptor type 3 (Homo sapiens, UniProt O60755); experiment: Fluorescence-based cell-based primary high throughput dose response assay to identify antagonists of the Galanin Receptor 3 (GalR3).; assay type: functional
# T1 sequence (O60755 whole entry): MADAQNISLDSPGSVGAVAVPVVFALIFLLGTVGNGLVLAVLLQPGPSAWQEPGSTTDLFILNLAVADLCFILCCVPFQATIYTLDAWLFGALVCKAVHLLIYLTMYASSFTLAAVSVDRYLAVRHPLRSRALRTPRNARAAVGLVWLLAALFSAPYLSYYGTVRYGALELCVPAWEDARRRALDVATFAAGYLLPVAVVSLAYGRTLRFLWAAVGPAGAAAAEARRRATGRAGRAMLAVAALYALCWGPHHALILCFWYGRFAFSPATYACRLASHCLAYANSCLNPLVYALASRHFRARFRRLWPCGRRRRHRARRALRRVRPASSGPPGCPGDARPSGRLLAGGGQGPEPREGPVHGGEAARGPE
# [11] = inhibitors of clade B AD8 Env fusion, dose response, cell-based, cherry-pick (AID 652062); assay type: functional;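 also: luciferase signal from cell-cell fusion driven by HIV-1 clade B AD8 Env; potency is for inhibitors of fusion seen as a drop in luminescence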
# [12] = ZM109 Env clade C HIV-1 fusion inhibitors, dose response, HeLa effector, CEM target cells, luciferase, cherry-pick (AID 652058); assay type: functional, cell-based
# [13] = biological target: C-C chemokine receptor type 6 (Homo sapiens, UniProt P51684); experiment: CCR6 receptor antagonists, dose response, cell-based, luminescent beta-arrestin readout (AID 504728); assay type: functional
# [14] = biological target: Voltage-dependent T-type calcium channel subunit alpha-1H (Homo sapiens, UniProt O95180); assay type: functional;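 also: channel activity triggered by adding a high calcium stimulation buffer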
# Bcl-2-like protein 10 = biological target: T2, Bcl-2-like protein 10 (Homo sapiens, UniProt Q9HD36); experiment: Biochemical TR3 FP assay of Bcl-B inhibitor potency, EC50 (AID 1243); assay type: functional
# T2 sequence (Q9HD36 whole entry): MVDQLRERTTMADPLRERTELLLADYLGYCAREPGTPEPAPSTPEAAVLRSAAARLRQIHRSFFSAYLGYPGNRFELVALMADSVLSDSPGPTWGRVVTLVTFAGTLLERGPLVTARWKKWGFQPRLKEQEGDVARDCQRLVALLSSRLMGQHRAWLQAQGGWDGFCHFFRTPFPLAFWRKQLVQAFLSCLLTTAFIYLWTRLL
# [15] = Luminescence-based counterscreen assay for KLF5 inhibitors: dose response cell-based high throughput screening assay to identify cytotoxic compounds using the IEC-6 intestinal epithelial cell line. [Related pubchem assays: 1700 (Primary screen.), 1834 (Confirmation screen.), 1858 (Summary AID.), 1905 (Counterscreen.)]; assay type: functional
# [16] = cytotoxicity in HEK-293T cells, dose response, cytotoxicity control for BCR NF-kB inhibitor project, luminescence, B-cell screen hits (AID 489021); assay type: functional, cell-based;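 also: HEK-293T cells carrying an NF-kB luciferase reporter; cells exposed to compound for about 14 hours before viability readout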
# Melanin-concentrating hormone receptor 1, sequence (Q99705 whole entry): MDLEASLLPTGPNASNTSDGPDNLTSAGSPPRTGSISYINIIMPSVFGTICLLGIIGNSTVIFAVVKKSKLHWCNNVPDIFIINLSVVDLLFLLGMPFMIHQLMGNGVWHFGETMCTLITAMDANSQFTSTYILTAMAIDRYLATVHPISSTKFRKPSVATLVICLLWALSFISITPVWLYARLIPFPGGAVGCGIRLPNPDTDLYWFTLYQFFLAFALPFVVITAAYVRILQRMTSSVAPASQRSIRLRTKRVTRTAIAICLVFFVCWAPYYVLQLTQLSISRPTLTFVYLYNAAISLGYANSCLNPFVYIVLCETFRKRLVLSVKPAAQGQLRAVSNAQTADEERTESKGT
# Beta-galactosidase, sequence (Q8VNN2 whole entry): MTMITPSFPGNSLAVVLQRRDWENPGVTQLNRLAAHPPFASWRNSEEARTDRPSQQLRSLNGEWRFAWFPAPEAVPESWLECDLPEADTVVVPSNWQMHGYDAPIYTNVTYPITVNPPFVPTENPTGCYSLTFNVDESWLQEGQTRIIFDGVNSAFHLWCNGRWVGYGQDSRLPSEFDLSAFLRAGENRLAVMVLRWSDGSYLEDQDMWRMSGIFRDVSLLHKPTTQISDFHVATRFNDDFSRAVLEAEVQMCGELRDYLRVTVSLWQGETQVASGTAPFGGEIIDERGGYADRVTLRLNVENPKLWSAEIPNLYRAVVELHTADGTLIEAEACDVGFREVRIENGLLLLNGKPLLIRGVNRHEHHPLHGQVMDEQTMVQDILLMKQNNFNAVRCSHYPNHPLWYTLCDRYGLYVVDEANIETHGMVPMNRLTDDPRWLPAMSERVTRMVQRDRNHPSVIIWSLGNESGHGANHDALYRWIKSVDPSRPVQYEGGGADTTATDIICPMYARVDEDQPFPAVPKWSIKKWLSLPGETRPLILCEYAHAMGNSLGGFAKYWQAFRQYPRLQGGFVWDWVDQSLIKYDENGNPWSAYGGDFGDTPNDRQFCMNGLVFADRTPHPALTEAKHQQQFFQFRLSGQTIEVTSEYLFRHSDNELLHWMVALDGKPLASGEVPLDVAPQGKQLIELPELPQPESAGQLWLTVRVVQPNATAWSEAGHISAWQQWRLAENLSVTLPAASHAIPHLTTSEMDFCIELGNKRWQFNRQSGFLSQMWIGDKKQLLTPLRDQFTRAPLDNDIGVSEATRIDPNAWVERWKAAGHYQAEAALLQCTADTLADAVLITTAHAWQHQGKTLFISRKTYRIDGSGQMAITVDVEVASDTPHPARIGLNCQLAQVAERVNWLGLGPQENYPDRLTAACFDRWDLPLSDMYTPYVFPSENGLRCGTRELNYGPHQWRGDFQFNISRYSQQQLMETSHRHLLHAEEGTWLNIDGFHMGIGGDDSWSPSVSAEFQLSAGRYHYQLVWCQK
# RNA-editing ligase 1, mitochondrial, sequence (P86926 whole entry): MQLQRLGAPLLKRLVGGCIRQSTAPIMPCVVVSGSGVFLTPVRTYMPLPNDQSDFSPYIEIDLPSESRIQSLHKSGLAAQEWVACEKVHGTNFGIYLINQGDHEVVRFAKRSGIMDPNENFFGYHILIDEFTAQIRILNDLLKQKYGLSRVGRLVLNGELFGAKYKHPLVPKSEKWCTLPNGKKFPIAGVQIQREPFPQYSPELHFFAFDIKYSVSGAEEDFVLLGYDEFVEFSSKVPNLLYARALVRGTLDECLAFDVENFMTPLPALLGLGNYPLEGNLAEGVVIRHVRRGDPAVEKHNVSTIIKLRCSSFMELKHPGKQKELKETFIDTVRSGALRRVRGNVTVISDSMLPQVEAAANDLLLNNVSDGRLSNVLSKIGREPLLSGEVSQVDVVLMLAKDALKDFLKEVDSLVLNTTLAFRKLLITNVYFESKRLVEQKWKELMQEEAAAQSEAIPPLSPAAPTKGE
# NACHT, LRR and PYD domains-containing protein 3, sequence (Q96P20 whole entry, the tested form may be a part): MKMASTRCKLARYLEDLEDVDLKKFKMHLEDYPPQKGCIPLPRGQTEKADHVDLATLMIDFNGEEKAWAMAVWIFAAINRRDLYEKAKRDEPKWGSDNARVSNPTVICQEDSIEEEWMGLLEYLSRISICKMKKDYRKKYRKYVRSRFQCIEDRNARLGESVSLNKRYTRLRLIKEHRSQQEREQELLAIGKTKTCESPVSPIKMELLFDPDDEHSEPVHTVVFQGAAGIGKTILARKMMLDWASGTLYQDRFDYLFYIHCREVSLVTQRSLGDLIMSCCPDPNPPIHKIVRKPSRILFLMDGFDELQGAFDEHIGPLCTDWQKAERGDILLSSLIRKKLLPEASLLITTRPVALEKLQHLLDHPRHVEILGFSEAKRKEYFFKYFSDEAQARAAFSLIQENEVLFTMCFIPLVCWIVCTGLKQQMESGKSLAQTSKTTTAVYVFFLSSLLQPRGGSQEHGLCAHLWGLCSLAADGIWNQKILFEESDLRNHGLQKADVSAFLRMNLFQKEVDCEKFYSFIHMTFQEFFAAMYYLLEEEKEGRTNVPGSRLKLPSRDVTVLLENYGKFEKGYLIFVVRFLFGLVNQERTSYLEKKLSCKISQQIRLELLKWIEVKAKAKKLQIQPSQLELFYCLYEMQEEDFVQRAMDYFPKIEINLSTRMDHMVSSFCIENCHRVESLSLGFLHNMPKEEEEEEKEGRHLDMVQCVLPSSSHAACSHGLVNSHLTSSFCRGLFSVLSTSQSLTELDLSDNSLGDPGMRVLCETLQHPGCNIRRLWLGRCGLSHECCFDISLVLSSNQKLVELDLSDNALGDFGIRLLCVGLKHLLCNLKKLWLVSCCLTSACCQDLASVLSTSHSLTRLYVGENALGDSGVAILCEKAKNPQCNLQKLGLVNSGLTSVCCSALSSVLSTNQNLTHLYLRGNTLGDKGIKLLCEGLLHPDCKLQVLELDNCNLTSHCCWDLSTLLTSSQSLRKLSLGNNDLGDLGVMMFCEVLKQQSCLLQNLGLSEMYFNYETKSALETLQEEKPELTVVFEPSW
# C-C chemokine receptor type 6, sequence (P51684 whole entry): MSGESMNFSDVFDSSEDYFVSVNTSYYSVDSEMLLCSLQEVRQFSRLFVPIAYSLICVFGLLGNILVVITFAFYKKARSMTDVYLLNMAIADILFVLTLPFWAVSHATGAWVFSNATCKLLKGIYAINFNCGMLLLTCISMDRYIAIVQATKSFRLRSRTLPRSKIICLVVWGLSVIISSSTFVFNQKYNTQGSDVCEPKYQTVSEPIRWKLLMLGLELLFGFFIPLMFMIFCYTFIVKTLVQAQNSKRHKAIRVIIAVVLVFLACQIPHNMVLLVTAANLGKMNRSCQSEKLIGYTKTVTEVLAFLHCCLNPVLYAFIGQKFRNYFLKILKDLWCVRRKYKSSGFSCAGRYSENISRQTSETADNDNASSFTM
# Luciferin 4-monooxygenase, sequence (P08659 whole entry): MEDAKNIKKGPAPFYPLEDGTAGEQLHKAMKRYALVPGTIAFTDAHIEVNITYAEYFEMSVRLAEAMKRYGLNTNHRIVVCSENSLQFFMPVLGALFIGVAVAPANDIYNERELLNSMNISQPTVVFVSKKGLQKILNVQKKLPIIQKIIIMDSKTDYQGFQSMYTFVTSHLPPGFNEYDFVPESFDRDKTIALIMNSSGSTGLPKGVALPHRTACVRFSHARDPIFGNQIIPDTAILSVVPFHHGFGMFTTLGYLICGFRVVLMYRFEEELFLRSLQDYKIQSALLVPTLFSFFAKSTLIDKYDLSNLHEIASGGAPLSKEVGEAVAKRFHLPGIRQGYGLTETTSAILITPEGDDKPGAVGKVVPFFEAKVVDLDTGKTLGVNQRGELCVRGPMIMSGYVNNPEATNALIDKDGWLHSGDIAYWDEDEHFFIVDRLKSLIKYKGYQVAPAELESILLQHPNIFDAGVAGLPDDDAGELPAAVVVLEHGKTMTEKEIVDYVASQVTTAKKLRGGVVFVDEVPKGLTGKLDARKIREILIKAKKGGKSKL
smiles,measurement,setting,value
CCOC(=O)CNC(=O)CSc1ncnc2c1cnn2-c1ccc(C)cc1,EC50,[1],< 0.2 µM (active)
same,EC50,HT-1080,> 50 µM (not active)
O=c1cc(-c2ccccc2Cl)oc2ccc([N+](=O)[O-])c(O)c12,EC50,[2],4.58 µM (active)
same,CC50,[3],> 20 µM (active)
same,CC50,[4],26.2 µM (active)
same,IC50,cells [5],12.1 µM (active)
same,IC50,[6],9.17 µM (active)
same,EC50,Streptococcus,8.09 µM (active)
COCCNC1=N[C@@H](c2cccc(C(F)(F)F)c2)C(C(=O)OC)=C(C)N1Cc1ccccc1,IC50,[7],> 96.6 µM (inactive)
same,IC50,[8],14.7 µM (not active)
COCC(C)n1c(-c2ccc3c(c2)NC(=O)CO3)cs/c1=N\c1ccc(OC(F)F)cc1 (stereo unspecified),IC50,Beta-galactosidase,> 66.6 µM (inactive)
same,EC50,cells [9],> 29.9 µM (inactive)
same,AC50,[10],42.7 µM (active)
same,IC50,Galanin receptor type 3,4.24 µM (active) and 3.49 µM (active)
same,AC50,[11],3.15 µM (active)
same,AC50,[12],4.28 µM (active)
same,IC50,[13],> 66.6 µM (inactive)
CCN(CC)S(=O)(=O)c1cccc(C(=O)N[C@H](C(=O)OCC(=O)Nc2ccccc2)C(C)C)c1,EC50,[14],0.558 µM (active)
OC1=c2ccccc2=C(O)C12N=Nc1nnc(S)n1N2,EC50,Bcl-2-like protein 10,23.8 µM (active)
Cc1ccc(/C=C2/SC(=S)N(CCCC(=O)Nc3ccc(O)cc3)C2=O)cc1,IC50,[15],14.1 µM (not active)
same,IC50,[16],> 80 µM (inactive)
